Assay results published in US11375929B2, “Method and device for detection of bioavailable drug concentration in a fluid sample” (THE UNIVERSITY OF TENNESSEE RESEARCH FOUNDATION, priority 2008, dated 2022).

Assay: membrane/water partition coefficient calculated from CV peak current ratio of uncoated and PVC membrane-coated GC electrode (Equation 1)
Format: physicochemical

SMILES: CC(=O)Nc1ccc(O)cc1 [APAP, 4-acetamidophenol]
- Pmw (membrane/water partition coefficient) (PVC membrane I (o-NPOE), Cw=1 mM, iw/im ~140, Dm=4×10^−8 cm^2/s, Dw=8×10^−6 cm^2/s): 0.1
- Pmw (membrane/water partition coefficient) (membrane III (DOS), same protocol): 0.5
- Pmw (membrane/water partition coefficient) (membrane V (1-octanol), same protocol): 1.6
